Test results reported in article PMC10508484, “Development and application of a PBPK modeling strategy to support antimalarial drug development” (CPT: Pharmacometrics & Systems Pharmacology, 2023).
Where “and” joins values, the source holds several entries; their conditions need not be identical. Equal values may be shown once. Read-outs that look alike come from different tables or passages of the source.

How the values were obtained:
[1] = In vitro flags for victim and perpetrator properties conferring DDI liability; type: in vitro ADME, human; conditions: in vitro flag, mainly based on in vitro determinations
[2] = cited from earlier work; for Cmax: read-out: Cmax Obs
[3] = PBPK input, cited from earlier work
[4] = ref Charman et al., 2020 1; cited from earlier work
Caco-2 cells = conditions: cited from earlier work
[5] = cited from earlier work; for CL IV: clinically observed, ref atovaquone Lavelle et al., 1994 17, chloroquine Walker et al., 1987 29, Gustafsson et al., 1983 30, doxycycline Raghuram et al., 1982 48, Nguyen et al., 1989 49, primaquine Mihaly et al., 1985 26, quinine White et al., 1983 77, Paintaud et al., 1993 78
CYP3A4 [6] = target: T1, CYP3A4 (Homo sapiens, UniProt P08684)
T1 sequence (P08684 whole entry): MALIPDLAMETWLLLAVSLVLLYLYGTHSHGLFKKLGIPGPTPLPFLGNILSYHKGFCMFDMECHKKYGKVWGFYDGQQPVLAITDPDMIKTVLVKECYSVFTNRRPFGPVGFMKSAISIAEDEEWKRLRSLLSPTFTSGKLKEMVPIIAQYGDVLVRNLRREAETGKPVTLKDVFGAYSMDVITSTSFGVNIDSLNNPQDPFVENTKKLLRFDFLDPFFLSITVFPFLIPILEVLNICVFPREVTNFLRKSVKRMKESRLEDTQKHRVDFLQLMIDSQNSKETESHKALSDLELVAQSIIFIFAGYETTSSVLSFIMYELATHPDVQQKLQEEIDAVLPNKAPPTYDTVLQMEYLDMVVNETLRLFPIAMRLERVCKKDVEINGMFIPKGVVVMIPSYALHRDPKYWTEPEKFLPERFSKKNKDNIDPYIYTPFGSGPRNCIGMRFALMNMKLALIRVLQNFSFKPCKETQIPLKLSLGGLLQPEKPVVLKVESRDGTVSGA
Description: (§1) In nearly all cases the fraction of systemic elimination metabolised by a given enzyme (fm) determined in vitro was unavailable in the literature.

CYP2C9 = conditions: ref mefloquine Karbwang et al., 1988 58; tafenoquine Charman et al., 2020 1; cited from earlier work
[7] = 2020 1, cited from earlier work
CYP1A2 = conditions: read-out: CYP1A2 IC50; ref Charman et al., 2020 1; cited from earlier work
[8] = Fraction unbound in human liver microsomes (fumic); conditions: extrapolated from value measured at 0.4 mg/mL to 0.1 mg/mL, method of Austin et al., 2002
[9] = PBPK simulation of drug-drug interactions (Simcyp V19); set-up: species or system human; conditions: ratio of simulated to clinically observed AUC ratio; DDI of the respective line of Table S3
Description: Here, we provide three example applications where the available PBPK models were used to address questions relating to DDI assessment. […] Additional simulation methods are provided in Appendix S1.
All simulations, including the ones performed for the applications, were run using Version 19 of the Simcyp population-based PBPK simulator (Simcyp (Certara), Sheffield, UK) and unless stated otherwise, input parameters for all drugs are as specified (Supplementary Information Table S1). All simulations were run using ten virtual trials that were matched as closely as possible to the clinical study volunteers in terms of the number of subjects, their age, the proportion of males/females and according to the same study design.

CYP2B6 [10] = experiment: Metabolism by CYP2B6 (CLint, Vmax, Km, fm); type: in vitro ADME, human; conditions: fraction metabolised used in the PBPK model (artemether: without induction)
Description: as §1

[11] = PBPK input; ref Charman et al., 2020 1; cited from earlier work
CYP2B6 [12] = system: CYP2B6; set-up: method as in Honda et al., 2011 12; conditions: ref Honda et al., 2011 12; cited from earlier work
[13] = cited from earlier work
CYP3A4 [14] = target: T1, CYP3A4; conditions: cited from earlier work
[15] = calibrated against propranolol, plasma as medium for atovaquone and piperaquine, ref Charman et al., 2020 1
[16] = 80 mg BID (Day 22-24) + rifampicin 600 mg QD (Days 1-24), HIV-infected, ref Lamorde et al., 2013 3
[17] = 80 mg BID (Days 13-15) + efavirenz 600 mg QD (Days 1-16), ref Huang et al., 2012 4
[18] = 80 mg SD (Day 1) + ketoconazole 400 mg SD (Day 1), 200 mg QD (Days 2-5), ref Lefevre et al., 2002 2

Q: For O=C1C(O)=C([C@H]2CC[C@H](c3ccc(Cl)cc3)CC2)C(=O)c2ccccc21 [Atovaquone, atovaquone], which “Risk as a perpetrator” value [1] is on record?
A: BCRP inhibitor

Q: And the “Risk as a victim” value [1]?
A: Cleared by biliary excretion

Q: And the “AUC Obs” value ([2]; 250 mg QD, 0-24 h, ref Thapar et al., 2002 10)?
A: 254 µM·h

Q: And the “AUC Obs” value ([2]; 250 mg SD, 0-inf, ref Thapar et al., 2002 10)?
A: 295 µM·h

Q: And the “AUC Obs” value ([2]; 500 mg SD, AUC window Unknown, ref Rolan et al., 1994 9)?
A: 288000 ng·h/mL

Q: What about the “Cmax Obs” value ([2]; 500 mg SD, ref Rolan et al., 1994 9) of the same molecule?
A: 4400 ng/mL

Q: And the Cmax ([2]; 250 mg QD, ref Thapar et al., 2002 10)?
A: 13.8 µM

Q: What about the Cmax ([2]; 250 mg SD, ref Thapar et al., 2002 10) of the same molecule?
A: 3.7 µM

Q: What about the fu ([3]; ref atovaquone Mepron Prescribing Information, 2008, Nixon et al., 2013 13, Rolan et al., 1997 14, azithromycin Foulds et al., 1990 20, chloroquine Ofori-Adjei et al., 1986 27, Walker et al., 1983 28, DHA Batty et al., 2004 41 (healthy volunteers), lumefantrine CDER submission 22-269, proguanil Wattanagoon et al., 1987 63, tafenoquine Dow et al., 2020 84) of the same molecule?
A: 0.001

Q: And the “pKa(s)” value [4]?
A: 4.28

Q: What about the “Caco-2 (Papp A-B)” value (Caco-2 cells; [15]) of the same molecule?
A: 300 10-6 cm/s

Q: And the “CL IV” value [5]?
A: 0.62 L/h

Q: And the CL renal ([5]; in vivo)?
A: 0 L/h

Q: What about the “fe (fraction excreted unchanged in urine)” value ([5]; in vivo) of the same molecule?
A: < 0.6%

Q: With OC(c1cc(C(F)(F)F)nc2c(C(F)(F)F)cccc12)C1CCCCN1 (stereo not drawn) [Mefloquine, mefloquine] as the molecule, how does the “Risk as a victim” value [1] read?
A: Substrate of CYP3A4

Q: What about the fmCYP3A4 (CYP3A4 [6]) of the same molecule?
A: 95%

Q: And the “CLint CYP3A4” value (CYP3A4 [6]; microsomes)?
A: 0.168 µL/min/pmol

Q: What about the Ki (CYP2C9) of the same molecule?
A: 260 µM

Q: And the “AUC Obs” value ([2]; in vivo, 250 mg)?
A: 116000 ng·h/mL

Q: What about the “Cmax Obs” value ([2]; in vivo, 250 mg) of the same molecule?
A: 310 ng/mL

Q: What about the “AUC Obs” value ([2]; in vivo, 750 mg) of the same molecule?
A: 393500 ng·h/mL

Q: What about the “AUC Obs” value ([2]; in vivo, 1000 mg) of the same molecule?
A: 516000 ng·h/mL

Q: And the “Cmax Obs” value ([2]; in vivo, 1000 mg)?
A: 960 ng/mL

Q: And the “Cmax Obs” value ([2]; in vivo, 1500 mg)?
A: 1440 ng/mL

Q: What about the “Caco-2 (Papp A-B)” value (Caco-2 cells; Caco-2) of the same molecule?
A: 66 10-6 cm/s

Q: What about the “CL PO” value ([5]; in vivo, po) of the same molecule?
A: 2.09 L/h

Q: And the CL renal ([5]; in vivo)?
A: 0.07 L/h

Q: What does the source list for COc1cc(NC(C)CCCN)c2ncccc2c1 (stereo not drawn) [Primaquine, primaquine]?
A: Risk as a perpetrator [1]: CYP1A2 inhibitor; Risk as a victim [1]: Substrate of MAO and CYP2D6; AUC Obs ([2]; 15 mg QD (Day 14), 0-inf, ref Ward et al., 1985 14): 443 ng·h/mL; Cmax Obs ([2]; 15 mg QD (Day 14), ref Ward et al., 1985 14): 66 ng/mL; AUC Obs ([2]; 15 mg SD, 0-inf, ref Mihaly et al., 1985 12): 500 ng·h/mL; AUC Obs ([2]; 15 mg SD, 0-inf, ref Ward et al., 1985 14): 468 ng·h/mL; Cmax Obs ([2]; 15 mg SD, ref Mihaly et al., 1985 12): 53 ng/mL; Cmax Obs ([2]; 15 mg SD, ref Ward et al., 1985 14): 65 ng/mL; AUC Obs ([2]; 30 mg SD, 0-inf, ref Hanboonkunupakarn et al., 2014 13): 1130 ng·h/mL; AUC Obs ([2]; 30 mg SD, 0-inf, ref Jittamala et al., 2015 15): 1180 ng·h/mL; Cmax Obs ([2]; 30 mg SD, ref Hanboonkunupakarn et al., 2014 13): 128 ng/mL; Cmax Obs ([2]; 30 mg SD, ref Jittamala et al., 2015 15): 139 ng/mL; AUC Obs ([2]; 45 mg SD, 0-inf, ref Mihaly et al., 1985 12): 1700 ng·h/mL; Cmax Obs ([2]; 45 mg SD, ref Mihaly et al., 1985 12): 176 ng/mL; fu ([3]; ref Charman et al., 2020 1): 0.26; B:P ([7]; ref Charman et al.): 0.82; Caco-2 (Papp A-B) (Caco-2 cells; [15]): 29 10-6 cm/s; CL IV [5]: 24.2 L/h; fe (fraction excreted unchanged in urine) ([5]; ref atovaquone Rolan et al., 1997 14, mefloquine Schwartz et al., 1982 57, primaquine White, 1985 62, proguanil (extensive metabolisers) Jeppesen et al., 1997 34, pyronaridine Wattanavijitkul, 2010 74, sulfadoxine assumed with Edstein, 1987 83): < 0.01%; IC50 (CYP1A2): < 0.25 µM; fumic [8]: 0.84

Q: With CO[C@H]1O[C@@H]2O[C@@]3(C)CC[C@H]4[C@H](C)CC[C@@H]([C@H]1C)[C@@]24OO3 [Artemether, artemether] as the molecule, how does the “AUC ratios Sim/Obs” value [9] read?
A: 1.00 and 1.08 and 1.15

Q: And the “Risk as a perpetrator” value [1]?
A: CYP2B6 inducer

Q: And the “Risk as a victim” value [1]?
A: Substrate of CYP2B6 and CYP3A4

Q: And the fmCYP3A4 (CYP3A4 [6])?
A: 53%

Q: And the fmCYP2B6 (CYP2B6 [10])?
A: 47%

Q: And the “Log P” value [11]?
A: 3.7

Q: What about the “CYP2B6 Vmax reported” value (CYP2B6 [12]) of the same molecule?
A: 17.9 pmol/min/pmol

Q: What about the Km (CYP2B6 [12]) of the same molecule?
A: 1.95 µM

Q: And the “AUC Obs” value ([2]; 80 mg BID (Day 3 PM), 60-72 h, ref Huang et al., 2012 8)?
A: 59.5 ng·h/mL

Q: What about the “AUC Obs” value ([2]; 80 mg BID (Day 3 PM), 62-72 h, ref Lefevre et al., 2002 7) of the same molecule?
A: 61.4 ng·h/mL

Q: And the “Cmax Obs” value ([2]; 80 mg BID (Day 3 PM), ref Huang et al., 2012 8)?
A: 21.2 ng/mL

Q: What about the “Cmax Obs” value ([2]; 80 mg BID (Day 3 PM), ref Lefevre et al., 2002 7) of the same molecule?
A: 30.8 ng/mL

Q: What about the “AUC Obs” value ([2]; 80 mg SD, Indian, 0-inf, ref Lefevre et al., 2013 6) of the same molecule?
A: 408 ng·h/mL

Q: What about the “Cmax Obs” value ([2]; 80 mg SD, Indian, ref Lefevre et al., 2013 6) of the same molecule?
A: 113 ng/mL

Q: And the “AUC Obs” value ([2]; 80 mg SD, 0-inf, ref Lefevre et al., 2002 5)?
A: 320 ng·h/mL

Q: And the “Cmax Obs” value ([2]; 80 mg SD, ref Lefevre et al., 2002 5)?
A: 104 ng/mL

Q: And the “AUC ratio Obs” value [13, 16]?
A: 0.11

Q: What about the “Cmax ratio Obs” value [13, 16] of the same molecule?
A: 0.18

Q: And the “AUC ratio Obs” value [13, 17]?
A: 0.49

Q: What about the “Cmax ratio Obs” value [13, 17] of the same molecule?
A: 0.79

Q: And the “AUC ratio Obs” value [13, 18]?
A: 2.51

Q: What about the “Cmax ratio Obs” value [13, 18] of the same molecule?
A: 2.24

Q: And the fu ([3]; ref Charman et al., 2020 1)?
A: 0.038

Q: What about the “B:P” value ([7]; PBPK input, ref artemether Colussi et al., 1999 11, atovaquone Rolan et al., 1997 14, Beerahee, 1999 16, Charman et al., azithromycin Pene Dumitrescu et al., 2013 21, DEAQ Winstanley et al., 1987 9, proguanil weighted mean Helsby et al., 1993 61, Wattanagoon et al., 1987 63) of the same molecule?
A: 0.8

Q: And the “Caco-2 (Papp A-B)” value (Caco-2 cells; [15])?
A: 42.7 10-6 cm/s

Q: And the “CYP3A4 Vmax reported” value (CYP3A4 [14])?
A: 12.3 pmol/min/pmol

Q: And the Km (CYP3A4 [14])?
A: 8.24 µM
